Consider 23 compounds from PubChem BioAssay AID330 (DTP/NCI, 2004).

The assay deals with P388 leukemia ip, CD2F1 mice, survival T/C. Kind of assay: NCI In Vivo Anticancer Drug Screen. Data for tumor model P388 Leukemia (intraperitoneal) in CD2F1 (CDF1) mice. The settings on record: endpoint: median survival time, higher = longer survival. The essentials: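 Mice carrying the transplanted tumor received test compound or vehicle. Survival was recorded in each group, and the value is the treated-group measurement divided by that of the vehicle-treated control group.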

Where [1] appears, read: dose: 50.0 mg/kg/injection, schedule: Q01DX009 (ip), vehicle: saline with Tween-80.
[2] abbreviates: dose: 100.0 mg/kg/injection, schedule: Q01DX009 (ip), vehicle: saline with Tween-80.
Setting [3] is: dose: 200.0 mg/kg/injection, schedule: Q01DX009 (ip), vehicle: saline with Tween-80.
Where [4] appears, read: dose: 60.0 mg/kg/injection, schedule: Q01DX005 (ip), vehicle: Klucel (hydroxypropylcellulose) (HPC).
[5] abbreviates: dose: 120.0 mg/kg/injection, schedule: Q01DX005 (ip), vehicle: Klucel (hydroxypropylcellulose) (HPC).
[6] abbreviates: dose: 50.0 mg/kg/injection, schedule: Q01DX005 (ip), vehicle: saline with Tween-80.
[7] abbreviates: dose: 100.0 mg/kg/injection, schedule: Q01DX005 (ip), vehicle: saline with Tween-80.
The mark [8] stands for this setting: dose: 50.0 mg/kg/injection, schedule: Q01DX005 (ip), vehicle: Klucel (hydroxypropylcellulose) (HPC).
[9] abbreviates: dose: 100.0 mg/kg/injection, schedule: Q01DX005 (ip), vehicle: Klucel (hydroxypropylcellulose) (HPC).

The structures appear in SMILES notation. Values joined by “and” are separate entries in the source; they are usually repeats but may differ in a detail not shown here. Equal entries are not always repeated. Inconclusive results and toxic doses are left out. Peptide text beside a SMILES is read from it. * marks the point of attachment. Cbz = O=C(OCc1ccccc1)*

As for `COc1cc2c(cc1OC)CN1CSc3cc(OC)c(OC)cc3C1C2` (stereo unspecified), the T/C (dose: 100.0 mg/kg/injection, schedule: Q01DX001 (ip), vehicle: saline with Tween-80) was 92 % of control and the T/C (dose: 200.0 mg/kg/injection, schedule: Q01DX001 (ip), vehicle: saline with Tween-80) is 92 % of control.

With `CC(CC(=O)c1ccccc1)=NCC(O)CN=C(C)CC(=O)c1ccccc1` (stereo unspecified), the T/C by setting is: under setting [1], 96 % of control; under setting [2], 94 % of control; under setting [3], 93 % of control.

For the compound `N#CC=Cc1ccc([N+](=O)[O-])s1` (mixture of isomers), the T/C (dose: 12.5 mg/kg/injection, schedule: Q01DX005 (ip), vehicle: saline with Tween-80) is 109 % of control and the T/C (dose: 25.0 mg/kg/injection, schedule: Q01DX005 (ip), vehicle: saline with Tween-80) is 115 % of control.

`O=C(Cc1c[nH]c2ccccc12)Nc1nncs1`: the T/C is, setting by setting: (dose: 100.0 mg/kg/injection, schedule: Q04DX002 (ip), vehicle: saline with Tween-80) 97 % of control; (dose: 200.0 mg/kg/injection, schedule: Q04DX002 (ip), vehicle: saline with Tween-80) 97 % of control; (dose: 400.0 mg/kg/injection, schedule: Q04DX002 (ip), vehicle: saline with Tween-80) 110 % of control.

As to `CCCOC(=O)c1ccccc1OP(=O)(N(C)C)N(C)C`, the T/C is, setting by setting: (dose: 50.0 mg/kg/injection, schedule: Q01DX005 (ip), vehicle: saline) 93 % of control; (dose: 100.0 mg/kg/injection, schedule: Q01DX005 (ip), vehicle: saline) 98 % of control; (dose: 200.0 mg/kg/injection, schedule: Q01DX005 (ip), vehicle: saline) 108 % of control.

With `C/C(=N\OCC(O)CNCCSCc1ccccc1)c1ccccc1Cl` (stereo unspecified), the T/C was 97 % of control (dose: 30.0 mg/kg/injection, schedule: Q01DX005 (ip), vehicle: Klucel (hydroxypropylcellulose) (HPC)); 91 % of control under setting [4]; 100 % of control and 91 % of control under setting [5].

`CC1=C[C@@H]2c3cccc4c3c(cn4C)C[C@H]2N(C)C1`: the T/C is, setting by setting: under setting [6], 99 % of control; under setting [7], 100 % of control.

Turning to `CC(=O)O[C@@H]1CO[C@H]2O[C@H]3[C@@H](C(C=O)=C[C@H](O)[C@@H]4C5=C(C(C)C)CC[C@]5(C)CC[C@@]34C)[C@@]2(O)C1=O`, the T/C (dose: 0.39 mg/kg/injection, schedule: Q01DX009 (ip), vehicle: Klucel (hydroxypropylcellulose) (HPC)) is 94 % of control; the T/C (dose: 0.78 mg/kg/injection, schedule: Q01DX009 (ip), vehicle: Klucel (hydroxypropylcellulose) (HPC)) is 104 % of control; the T/C (dose: 3.12 mg/kg/injection, schedule: Q01DX009 (ip), vehicle: Klucel (hydroxypropylcellulose) (HPC)) is 107 % of control and 114 % of control; the T/C (dose: 6.25 mg/kg/injection, schedule: Q01DX009 (ip), vehicle: Klucel (hydroxypropylcellulose) (HPC)) was 115 % of control and 121 % of control.

Regarding `O=C(Nc1ccc(CC2=NCCCN2)cc1)c1ccc(C(=O)Nc2ccc(CC3=NCCCN3)cc2)cc1`, the T/C by setting is: (dose: 0.78 mg/kg/injection, schedule: Q01DX005 (ip), vehicle: saline with Tween-80) 93 % of control; (dose: 1.56 mg/kg/injection, schedule: Q01DX005 (ip), vehicle: saline with Tween-80) 112 % of control.

As for `CN(/N=C/c1ccc(N(C)C)cc1)C(=O)c1ccccc1N`, the T/C runs as follows: under setting [1], 100 % of control; under setting [2], 93 % of control; under setting [3], 94 % of control.

For `COC(=O)[C@@]12OC[C@]34C([C@@H](O)C1O)[C@@]1(C)CC(=O)C(OS(=O)(=O)C(F)(F)F)=C(C)C1C[C@H]3OC(=O)[C@H](OC(=O)/C=C(\C)C(C)C)[C@H]42` (stereo partly specified), the T/C was 101 % of control (dose: 0.25 mg/kg/injection, schedule: Q01DX005 (ip), vehicle: DMSO); 108 % of control (dose: 0.5 mg/kg/injection, schedule: Q01DX005 (ip), vehicle: DMSO); 109 % of control and 97 % of control (dose: 1.0 mg/kg/injection, schedule: Q01DX005 (ip), vehicle: DMSO); 107 % of control and 118 % of control (dose: 2.0 mg/kg/injection, schedule: Q01DX005 (ip), vehicle: DMSO); 107 % of control (dose: 4.0 mg/kg/injection, schedule: Q01DX005 (ip), vehicle: DMSO); 115 % of control (dose: 8.0 mg/kg/injection, schedule: Q01DX005 (ip), vehicle: DMSO).

For `CCOC(=O)c1cnc2ccccc2c1N=[N+]=[N-]`, the T/C (dose: 60.0 mg/kg/injection, schedule: Q01DX005 (ip), vehicle: saline with Tween-80) is 94 % of control; the T/C (dose: 120.0 mg/kg/injection, schedule: Q01DX005 (ip), vehicle: saline with Tween-80) is 99 % of control; the T/C (dose: 240.0 mg/kg/injection, schedule: Q01DX005 (ip), vehicle: saline with Tween-80) is 103 % of control.

For the compound `Cc1cc(Nc2ccc(N(C)C)cc2)c2ccc(N(C)C)cc2n1`, the T/C was 95 % of control (dose: 100.0 mg/kg/injection, schedule: Q04DX002 (ip), vehicle: acid diluted with saline); 103 % of control (dose: 200.0 mg/kg/injection, schedule: Q04DX002 (ip), vehicle: acid diluted with saline); 96 % of control (dose: 400.0 mg/kg/injection, schedule: Q04DX002 (ip), vehicle: acid diluted with saline).

Take `O=C(CCN1CC1)Nc1ccc(NC(=O)CCN2CC2)cc1`: the T/C reads like this: (dose: 10.0 mg/kg/injection, schedule: Q04DX003 (ip), vehicle: Klucel (hydroxypropylcellulose) (HPC)) 198 % of control; (dose: 20.0 mg/kg/injection, schedule: Q04DX003 (ip), vehicle: Klucel (hydroxypropylcellulose) (HPC)) 227 % of control.

Turning to `O=C(NC1(C(=O)O)CC1c1ccccc1)c1ccccc1` (stereo unspecified), the T/C reads like this: under setting [4], 100 % of control; under setting [5], 94 % of control; (dose: 240.0 mg/kg/injection, schedule: Q01DX005 (ip), vehicle: Klucel (hydroxypropylcellulose) (HPC)) 100 % of control.

For `Cn1c(=O)ccc2c(=O)c3c(ccc4ccccc43)oc21`, the T/C runs as follows: under setting [6], 94 % of control; under setting [7], 92 % of control; (dose: 200.0 mg/kg/injection, schedule: Q01DX005 (ip), vehicle: saline with Tween-80) 91 % of control.

On to `C1CC[N-]CC1.C1CC[N-]CC1.C1CC[N-]CC1.[Cr+6].[N-]=C=O.[N-]=C=O.[N-]=C=O`, for which the T/C is, setting by setting: (dose: 100.0 mg/kg/injection, schedule: Q04DX002 (ip), vehicle: distilled water + alcohol) 99 % of control; (dose: 200.0 mg/kg/injection, schedule: Q04DX002 (ip), vehicle: distilled water + alcohol) 96 % of control; (dose: 400.0 mg/kg/injection, schedule: Q04DX002 (ip), vehicle: distilled water + alcohol) 89 % of control.

As for `NC1CCc2cc(O)c(O)cc2C1` (stereo unspecified), the T/C (dose: 100.0 mg/kg/injection, schedule: Q04DX002 (ip), vehicle: saline) is 108 % of control and 96 % of control; the T/C (dose: 200.0 mg/kg/injection, schedule: Q04DX002 (ip), vehicle: saline) was 105 % of control and 109 % of control; the T/C (dose: 400.0 mg/kg/injection, schedule: Q04DX002 (ip), vehicle: saline) is 109 % of control.

In the case of `O=C(NC(Cc1ccccc1)C(=O)NC(Cc1ccc(O)cc1)C(=O)O)OCc1ccccc1` (stereo not drawn) (Cbz-Phe-Tyr-OH; configuration not given here), the T/C (dose: 50.0 mg/kg/injection, schedule: Q01DX005 (ip), vehicle: saline + Tween-80 + alcohol) was 97 % of control; the T/C (dose: 100.0 mg/kg/injection, schedule: Q01DX005 (ip), vehicle: saline + Tween-80 + alcohol) is 95 % of control; the T/C (dose: 200.0 mg/kg/injection, schedule: Q01DX005 (ip), vehicle: saline + Tween-80 + alcohol) was 96 % of control.

On to `CCCCc1ccc(-n2c(C)nc3[nH]cc(C)c3c2=N)cc1`, for which the T/C reads like this: under setting [8], 96 % of control; under setting [9], 102 % of control; (dose: 200.0 mg/kg/injection, schedule: Q01DX005 (ip), vehicle: Klucel (hydroxypropylcellulose) (HPC)) 97 % of control.

For the compound `[Br][Sn]([CH2]CC[CH2][Sn]([Br])([c]1ccccc1)[c]1ccccc1)([c]1ccccc1)[c]1ccccc1`, the T/C reads like this: under setting [8], 93 % of control; under setting [9], 100 % of control.

Consider `CN1CCN(CC2CCOc3cc(Cl)ccc3C2=O)CC1` (stereo unspecified), for which the T/C by setting is: (dose: 100.0 mg/kg/injection, schedule: Q04DX003 (ip), vehicle: saline) 105 % of control; (dose: 200.0 mg/kg/injection, schedule: Q04DX003 (ip), vehicle: saline) 108 % of control.

`CCN(CC)CCOC12CC3CC(CC(C3)C1)C2`: the T/C by setting is: (dose: 12.5 mg/kg/injection, schedule: Q01DX005 (ip), vehicle: Klucel (hydroxypropylcellulose) (HPC)) 104 % of control; (dose: 25.0 mg/kg/injection, schedule: Q01DX005 (ip), vehicle: Klucel (hydroxypropylcellulose) (HPC)) 101 % of control; under setting [8], 100 % of control and 104 % of control.
